Assay results taken from patent US9376408B2, “Therapeutic thiazolidinone compounds” (Merck Sharp & Dohme Corp., priority 2012, dated 2016).
Where two headings read alike, the source gives them in different places.

Assays:
[1] = molecular target: T1, endogenous CETP from serum (Homo sapiens, UniProt P11597); test: RTA assay in 95% human serum (CETP-catalyzed CE and TG transfer, endogenous CETP from serum); format: biochemical
T1 construct: yielding a concentration of approximately 15 nM endogenous CETP in the assay; from tissue; host or cells: human serum
T1 sequence (P11597 18-493): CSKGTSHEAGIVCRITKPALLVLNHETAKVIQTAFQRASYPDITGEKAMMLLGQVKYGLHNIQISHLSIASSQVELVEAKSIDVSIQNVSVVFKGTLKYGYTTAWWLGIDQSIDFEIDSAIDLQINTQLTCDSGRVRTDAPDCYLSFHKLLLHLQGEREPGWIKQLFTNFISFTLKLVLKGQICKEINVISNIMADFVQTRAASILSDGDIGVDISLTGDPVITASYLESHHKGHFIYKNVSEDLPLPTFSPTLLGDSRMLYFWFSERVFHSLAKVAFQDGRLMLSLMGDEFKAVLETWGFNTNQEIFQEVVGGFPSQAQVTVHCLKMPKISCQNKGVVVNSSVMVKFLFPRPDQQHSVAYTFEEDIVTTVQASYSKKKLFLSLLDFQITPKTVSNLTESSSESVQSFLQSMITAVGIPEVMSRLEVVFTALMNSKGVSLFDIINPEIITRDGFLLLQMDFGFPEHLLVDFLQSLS
Experimental: In Vitro Radioactive Assays of CETP-Catalyzed CE and TG Transfer (RTA Assay)
Reagents and sources are: [3H] cholesteryl oleate (GE #TRK.886), [3H] Triolein (Perkin-Elmer NET-431), Butylated hydroxyl toluene (Aldrich, #D4740-4), DOPC (Sigma, # P6354), Sodium Bromide (Fisher scientific #S255-500), PEG 8000 (Fisher, #BP233-1), and human HDL (Intracel Corp #RP-036).
An in vitro assay for determining IC50's to identify compounds that inhibit CETP transfer activity is performed based on a modification of a published method (Morton and Zilversmit, (1981) A plasma inhibitor of triglyceride and cholesteryl ester transfer activities, J. Biol. Chem. 256(23), 11992-11995). The ability of inhibitors to alter CETP activity is performed using two different assays: one using recombinant CETP and one using an endogenous plasma source of CETP. Both assays measure the transfer of [3H] cholesteryl oleate or [3H] triolein from exogenous LDL to HDL.
Radiolabeled donor particles are generated by first combining 100 μl of 200 μM butylated hydroxyl toluene in CHCl3, 216 μL of 21.57 mM DOPC in EtOH, and either 500 μCi [3H]-triolein (Perkin Elmer #NET-431) or 500 μCi [3H]-cholesteryl oleate (GE #TRK886) in a glass tube. Reagents are mixed, dried under nitrogen, and then resuspended in 2 mL of 50 mM Tris, 27 μM EDTA at pH 7.4. After a brief vortex, the solution is sonicated until clear and mixed with 20 mL of fresh human serum. The mixture is incubated overnight at 37° C. The [3H] labeled LDL substrate is separated at 1.063 g/ml density by sequential ultracentrifugal flotation in NaBr according to the method of Havel, Eder, et al., 1955, and Chapman, Goldstein, et al., 1981. Once isolated the particles are dialyzed 3× in CETP buffer (50 mM Tris, pH 7.4, 100 mM NaCl, 1 mM EDTA). Human HDL is purchased from Intracel and used as the acceptor particles.
Transfer assays are performed in a 96-well v-bottom polypropylene plate. For the RTA using recombinant CETP (2% RTA), an assay cocktail is prepared with the final concentrations 128 μg/mL HDL, 20 nM rCETP, 2% human serum, and 1×CETP buffer. 1 μL of each test compound diluted in DMSO is added to 47 μL of assay cocktail per well and incubated at 37° C. for 1 hour. To initiate the transfer reaction, 2 μL radiolabeled LDL is added. After an additional 60 min of incubation at 37° C., the transfer action is terminated by precipitation of LDL with an equal volume of 20% W/V PEG 8000. The plates are centrifuged at 2000 rpm for 30 minutes at 4° C. A 40 μL aliquot of the HDL-containing supernatant is transferred to a Packard Optiplate™ with 200 μL of MicroScint™ 20. After mixing, plates are counted by liquid scintillation. Counts present in the supernatant for blanks (wells containing only HDL acceptor, CETP buffer and DMSO) are subtracted from those containing test compounds and used to correct for non-specific transfer.
For the transfer assay using endogenous CETP from serum (95% RTA), the same procedure is used except that human serum is added such that a final concentration of serum of 95% of the total assay volume is achieved, yielding a concentration of approximately 15 nM endogenous CETP in the assay. This is then combined with HDL and CETP buffer and the reaction proceeds as above and is terminated as described.
Comparison of the counts of samples with inhibitors to an uninhibited (DMSO only) positive control yield a percent inhibition. A plot of percent inhibition vs. log of inhibitor concentration, fit to a Sigmoidal 4 parameter equation is used to calculate IC50.
Starting materials are commercially available or are made using known procedures or as shown below. The examples may be synthesized using the general schemes provided below. Synthetic intermediates for making the compounds are made as described below. The data reported for the examples below were generally obtained using the RTA assay in 95% human serum. […]

[2] = patients on anacetrapib plus baseline statin compared with patients treated with just a statin; cited from earlier work

SMILES	IC50 ([1]; read-out: IC50) [nM]	further results
COc1ncc(-c2ccc(C(=O)O)cc2C)cc1-c1ccc(C(F)(F)F)cc1CN1C(=O)S[C@H](c2cc(C(F)(F)F)cc(C(F)(F)F)c2)[C@@H]1C [Example 7, 4-{5-[2-({(4S,5R)-5-[3,5-bis(trifluoromethyl)phenyl]-4-methyl-2-oxo-1,3-thiazolidin-3-yl}methyl)-4-(trifluoromethyl)phenyl]-6-methoxypyridin-3-yl}-3-methylbenzoic acid]	117	–
COc1ccc(CCC(=O)O)cc1-c1ccc(C(F)(F)F)nc1CN1C(=O)S[C@H](c2cc(C(F)(F)F)cc(C(F)(F)F)c2)[C@@H]1C [Example 4, 3-{3-[2-({(4S,5R)-5-[3,5-bis(trifluoromethyl)phenyl]-4-methyl-2-oxo-1,3-thiazolidin-3-yl}methyl)-6-(trifluoromethyl)pyridin-3-yl]-4-methoxyphenyl} propanoic acid]	300	–
COc1cc(F)c(C(C)C)cc1-c1ccc(C(F)(F)F)cc1CN1C(=O)O[C@H](c2cc(C(F)(F)F)cc(C(F)(F)F)c2)[C@@H]1C [anacetrapib]	–	decrease of LDL-C [2]: 40%; increase of HDL-C [2]: 138%
COc1ccc(-c2ccc(C(=O)O)cc2C)cc1-c1ccc(C(F)(F)F)nc1CN1C(=O)S[C@H](c2cc(C(F)(F)F)cc(C(F)(F)F)c2)[C@@H]1C [Example 2, 3′-[2-({(4S,5R)-5-[3,5-bis(trifluoromethyl)phenyl]-4-methyl-2-oxo-1,3-thiazolidin-3-yl}methyl)-6-(trifluoromethyl)pyridin-3-yl]-4′-methoxy-2-methylbiphenyl-4-carboxylic acid]	39	–
COc1ncc(-c2c(C)cc(C(=O)O)cc2C)cc1-c1ccc(C(F)(F)F)nc1CN1C(=O)S[C@H](c2cc(C(F)(F)F)cc(C(F)(F)F)c2)[C@@H]1C [Example 5, 4-[2′-({(4S,5R)-5-[3,5-bis(trifluoromethyl)phenyl]-4-methyl-2-oxo-1,3-thiazolidin-3-yl}methyl)-2-methoxy-6′-(trifluoromethyl)-3,3′-bipyridin-5-yl]-3,5-dimethylbenzoic acid]	25	–
COc1ncc(-c2ccc(C(=O)O)cc2C)cc1-c1ccc(C(F)(F)F)nc1CN1C(=O)S[C@H](c2cc(C(F)(F)F)cc(C(F)(F)F)c2)[C@@H]1C [Example 3, 4-[2′-({(4S,5R)-5-[3,5-bis(trifluoromethyl)phenyl]-4-methyl-2-oxo 1,3-thiazolidin-3-yl}methyl)-2-methoxy-6′-(trifluoromethyl)-3,3′-bipyridin-5-yl]-3-methylbenzoic acid]	106	–
COc1ccc(-c2ccc(C(=O)O)cc2C)cc1-c1ccc(C(F)(F)F)cc1CN1C(=O)S[C@H](c2cc(C(F)(F)F)cc(C(F)(F)F)c2)[C@@H]1C [Example 1, 2″-(((4S,5R)-5-(3,5-bis(trifluoromethyl)phenyl)-4-methyl-2-oxothiazolidin-3-yl)methyl)-4′-methoxy-2-methyl-4″-(trifluoromethyl)-[1,1′:3′,1″-terphenyl]-4-carboxylic acid]	–	IC50 ([1]; read-out: RTA (95% HS)): 62 nM
COc1ccc([C@H]2CC[C@H](C(=O)O)CC2)cc1-c1ccc(C(F)(F)F)nc1CN1C(=O)S[C@H](c2cc(C(F)(F)F)cc(C(F)(F)F)c2)[C@@H]1C [Example 6, trans-4-{3-[2-({(4S,5R)-5-[3,5-bis(trifluoromethyl)phenyl]-4-methyl-2-oxo-1,3-thiazolidin-3-yl}methyl)-6-(trifluoromethyl)pyridin-3-yl]-4-methoxyphenyl} cyclohexanecarboxylic acid]	257	–
